Laboratory results taken from publication PMC3006138, “Fexinidazole – A New Oral Nitroimidazole Drug Candidate Entering Clinical Development for the Treatment of Sleeping Sickness” (PLoS Neglected Tropical Diseases, 2010).
Read-outs that look alike come from different tables or passages of the source.

How the values were obtained:
[1] = biological target: CYP2C19 (Homo sapiens, UniProt P33261); experiment: In vitro CYP-450 metabolism; format: in vitro ADME; details: 1.0 µM, up to 60 min
Description: (§1) Duplicate samples of human recombinant CYP enzyme isotypes CYP1A2, CYP2B6, CYP2C8, CYP2C9, CYP2C19, CYP2D6, CYP3A4, CYP3A5 (10–30 pmol/mL) with NADPH as cofactor were incubated with fexinidazole, fexinidazole sulfoxide, or fexinidazole sulfone at a concentration of 1.0 µM for up to 60 min (pH 7.4, 37°C). Detection of the compounds was via HPLC-MS.

[2] = biological target: CYP2C8 (Homo sapiens, UniProt P10632); experiment: In vitro CYP-450 metabolism; format: in vitro ADME; details: 1.0 µM, up to 60 min
Description: as §1

[3] = biological target: CYP2C9 (Homo sapiens, UniProt P11712); experiment: In vitro CYP-450 metabolism; format: in vitro ADME; details: 1.0 µM, up to 60 min
Description: as §1

[4] = biological target: CYP3A4 (Homo sapiens, UniProt P08684); experiment: In vitro CYP-450 metabolism; format: in vitro ADME; details: 1.0 µM, up to 60 min
Description: as §1

[5] = biological target: CYP2B6 (Homo sapiens, UniProt P20813); experiment: In vitro CYP-450 metabolism; format: in vitro ADME; details: 1.0 µM, up to 60 min
Description: as §1

[6] = biological target: CYP1A2 (Homo sapiens, UniProt P05177); experiment: In vitro CYP-450 metabolism; format: in vitro ADME; details: 1.0 µM, up to 60 min
Description: as §1

[7] = biological target: CYP3A5 (Homo sapiens, UniProt P20815); experiment: In vitro CYP-450 metabolism; format: in vitro ADME; details: 1.0 µM, up to 60 min
Description: as §1

[8] = Hepatocyte intrinsic clearance and metabolite profile; format: in vitro ADME, mouse; details: male, CD-1, mouse, cryopreserved hepatocytes, 1 µM
Description: (§2) Fexinidazole was incubated with cryopreserved hepatocytes from male CD-1 mice, male Sprague Dawley rats, male beagle dogs, male cynomolgus monkeys, and from pooled white or African-American human donor samples (purchased commercially), at concentrations of 1 µM and 10 µM. […] The incubated samples were analyzed by LC-MS after extraction into acetonitrile.
(§3) A quality control analysis of fexinidazole was performed via 1H-NMR in DMSO and LC- […]
(§4) provided by the Swiss Tropical Institute (Basel, Switzerland).
(§5) Reagents and solvents were of analytical grade and obtained from Sigma-Aldrich (St. Louis, […]
(§6) Cryopreserved hepatocytes from the male CD1 mouse, lot CSI; male Sprague Dawley rat, lot LPL; male beagle dog, lot BWX; male cynomolgus monkey, lot EHH; and pooled human samples, lot MJI, were purchased from In Vitro Technologies Inc (Baltimore, Maryland, […]
(§7) 5.4. In vitro Incubations
(§8) On the day of the experiment a 10 mM stock solution of fexinidazole in DMSO was prepared and, within 3 hours, aliquots of this freshly prepared solution, after suitable dilution, were added to the incubation matrix, to reach fexinidazole final concentrations of 1 and 10 µM. The final percentage of DMSO was 0.01% in the incubation samples for the […]
(§9) On the day of experiment, the cryopreserved hepatocytes were thawed following the detailed instructions provided by the supplier.
(§10) The number of viable cells was determined using a Trypan Blue exclusion method.
(§11) 5.4.1. Intrinsic Clearance Study […]
(§12) µM with mouse, rat, dog, monkey and human hepatocytes (300000 cells/mL for the mouse and 1 million cells/mL for the other species) in a final incubation volume of 0.75 mL […]
(§13) Incubations were performed in duplicate in a 48-well plate under shaking. Sampling was performed using an automatic liquid handling system (Multiprobe II EX, Packard). At 0, 1, 5, 10, 15, 20, 30, 60 and 120 minutes, 50 µL aliquots of the incubates were taken, then 80 µL of ice-cold acetonitrile and 20 µL of 1 µM warfarin in acetonitrile (internal standard) were added, and samples centrifuged at 2000 rpm for 20 min. The supernatant was analyzed by LC-MS/MS. […]
(§14) the medium alone at t = 0 and 120 minutes.
(§15) For the determination of phase I and phase II activity of hepatocytes, 7-ethoxycoumarin (7-EC) 1 µM, and 7-hydroxycoumarin (7-HC) 30 µM were used as positive controls and incubated under the same conditions as fexinidazole. Aliquots of incubates were taken at 0, 10, 20, 30, 60 and 120 minutes and processed as fexinidazole samples.
(§16) 5.4.2. Metabolite Profile Study
(§17) For metabolite profiling, fexinidazole was incubated at a concentration of 10 µM with mouse, rat, dog, monkey and human hepatocytes (300000 cells/mL for the mouse and 1 million cells/mL for the other species) in a final incubation volume of 2 mL Leibovitz L-15 […]
(§18) Aliquots of the incubation samples were taken at t = 0, 30 and 120 minutes; the metabolism was stopped by the addition of an equal volume of cold acetonitrile and the samples centrifuged at 1500 rpm for 20 min. The supernatant was stored at -20°C until analysis. Control incubations were performed with the compound in the medium alone […]
(§19) 5.5. Analysis of Samples for Intrinsic Clearance Determination
(§20) The analysis of the samples for intrinsic clearance determination was performed by an LC-MS/MS method, using the following conditions:
(§21) HPLC Equipment and Conditions
(§22) HPLC system Agilent 1100 binary pump (Agilent, Palo Alto, USA)
(§23) Autosampler CTC Pal (Alfatech, San Jose, USA)
(§24) Analytical column Guard Column SB-C8 4.6 x 12.5 mm, 5 µm (Zorbax)
(§25) Column temperature ambient
(§26) Mobile phase A 10 mM ammonium formate pH 4.0: acetonitrile (95:5, v:v)
(§27) Mobile phase B 10 mM ammonium formate pH 4.0: acetonitrile (5:95, v:v) […]
(§28) Gradient conditions Step Total time (min) flow (µL/min) %A % B […]
(§29) MS Equipment and Conditions
(§30) Mass spectrometer API 4000 Triple Quadrupole (MDS-Sciex, Toronto, […]
(§31) Source Turbo Ion Spray (TIS)
(§32) Ion mode Positive for fexinidazole and 7-EC.
(§33) Negative for 7-HC, 7-HC sulphate and 7-HC glucuronide.

[9] = as above; format: in vitro ADME, cynomolgus monkey; details: male, cynomolgus monkey, cryopreserved hepatocytes, 1 µM
Description: as §2, §3, §4, §5, §6, §7, §8, §9, §10, §11, §12, §13, §14, §15, §16, §17, §18, §19, §20, §21, §22, §23, §24, §25, §26, §27, §28, §29, §30, §31, §32, §33

Chain of CYP2C9 (P11712 whole entry): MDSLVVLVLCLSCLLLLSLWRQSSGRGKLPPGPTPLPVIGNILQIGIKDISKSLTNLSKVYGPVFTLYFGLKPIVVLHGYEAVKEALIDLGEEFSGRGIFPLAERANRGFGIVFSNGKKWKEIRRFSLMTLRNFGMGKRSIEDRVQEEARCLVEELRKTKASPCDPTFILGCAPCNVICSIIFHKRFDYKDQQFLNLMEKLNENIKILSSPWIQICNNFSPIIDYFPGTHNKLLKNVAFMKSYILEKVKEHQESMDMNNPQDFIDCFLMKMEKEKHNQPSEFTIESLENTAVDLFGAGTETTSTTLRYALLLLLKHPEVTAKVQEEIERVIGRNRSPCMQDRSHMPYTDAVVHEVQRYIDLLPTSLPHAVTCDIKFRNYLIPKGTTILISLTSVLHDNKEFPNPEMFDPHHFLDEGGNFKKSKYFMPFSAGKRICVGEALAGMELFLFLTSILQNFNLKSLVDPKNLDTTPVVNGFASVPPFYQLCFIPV
Chain of CYP3A5 (P20815 whole entry): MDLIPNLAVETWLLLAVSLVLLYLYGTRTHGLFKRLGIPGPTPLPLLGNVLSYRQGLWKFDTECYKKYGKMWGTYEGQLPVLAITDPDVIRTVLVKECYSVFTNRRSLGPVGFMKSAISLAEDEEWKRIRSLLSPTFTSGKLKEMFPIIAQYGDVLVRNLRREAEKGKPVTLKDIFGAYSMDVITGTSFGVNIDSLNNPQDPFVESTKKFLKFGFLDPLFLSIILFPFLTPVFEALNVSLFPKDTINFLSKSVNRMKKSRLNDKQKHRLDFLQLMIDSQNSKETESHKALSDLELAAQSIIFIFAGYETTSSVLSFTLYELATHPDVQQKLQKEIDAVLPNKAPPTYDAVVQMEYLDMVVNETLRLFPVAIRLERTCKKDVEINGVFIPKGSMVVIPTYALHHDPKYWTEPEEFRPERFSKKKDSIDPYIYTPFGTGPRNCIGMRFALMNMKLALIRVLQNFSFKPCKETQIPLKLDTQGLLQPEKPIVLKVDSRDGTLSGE
Chain of CYP2C8 (P10632 whole entry): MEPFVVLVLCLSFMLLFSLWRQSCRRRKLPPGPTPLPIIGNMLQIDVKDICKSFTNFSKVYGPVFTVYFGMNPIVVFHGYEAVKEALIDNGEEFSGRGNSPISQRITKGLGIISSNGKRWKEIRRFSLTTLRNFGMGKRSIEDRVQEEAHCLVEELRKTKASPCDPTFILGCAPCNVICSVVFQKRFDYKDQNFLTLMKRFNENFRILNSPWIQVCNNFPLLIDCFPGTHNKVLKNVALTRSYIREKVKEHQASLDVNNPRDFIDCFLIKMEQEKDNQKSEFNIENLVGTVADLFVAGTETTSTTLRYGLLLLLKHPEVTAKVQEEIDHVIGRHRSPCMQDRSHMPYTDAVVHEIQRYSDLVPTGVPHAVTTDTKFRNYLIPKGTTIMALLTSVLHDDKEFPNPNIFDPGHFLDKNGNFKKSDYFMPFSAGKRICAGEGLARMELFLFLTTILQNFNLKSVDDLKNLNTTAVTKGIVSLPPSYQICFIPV
Chain of CYP2C19 (P33261 whole entry): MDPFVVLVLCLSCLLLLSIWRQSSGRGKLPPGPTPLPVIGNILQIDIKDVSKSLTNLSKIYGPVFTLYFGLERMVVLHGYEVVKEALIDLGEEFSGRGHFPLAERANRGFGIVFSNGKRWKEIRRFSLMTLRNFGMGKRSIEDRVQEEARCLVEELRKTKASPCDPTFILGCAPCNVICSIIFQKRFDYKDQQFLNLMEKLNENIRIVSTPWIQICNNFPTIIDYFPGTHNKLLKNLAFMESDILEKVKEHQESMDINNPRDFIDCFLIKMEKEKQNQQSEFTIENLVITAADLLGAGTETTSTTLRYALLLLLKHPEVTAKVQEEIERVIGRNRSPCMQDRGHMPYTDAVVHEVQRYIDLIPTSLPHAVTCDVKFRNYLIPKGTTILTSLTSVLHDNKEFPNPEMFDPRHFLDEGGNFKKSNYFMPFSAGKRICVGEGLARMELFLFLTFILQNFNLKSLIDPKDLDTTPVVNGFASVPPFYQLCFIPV
Chain of CYP3A4 (P08684 whole entry): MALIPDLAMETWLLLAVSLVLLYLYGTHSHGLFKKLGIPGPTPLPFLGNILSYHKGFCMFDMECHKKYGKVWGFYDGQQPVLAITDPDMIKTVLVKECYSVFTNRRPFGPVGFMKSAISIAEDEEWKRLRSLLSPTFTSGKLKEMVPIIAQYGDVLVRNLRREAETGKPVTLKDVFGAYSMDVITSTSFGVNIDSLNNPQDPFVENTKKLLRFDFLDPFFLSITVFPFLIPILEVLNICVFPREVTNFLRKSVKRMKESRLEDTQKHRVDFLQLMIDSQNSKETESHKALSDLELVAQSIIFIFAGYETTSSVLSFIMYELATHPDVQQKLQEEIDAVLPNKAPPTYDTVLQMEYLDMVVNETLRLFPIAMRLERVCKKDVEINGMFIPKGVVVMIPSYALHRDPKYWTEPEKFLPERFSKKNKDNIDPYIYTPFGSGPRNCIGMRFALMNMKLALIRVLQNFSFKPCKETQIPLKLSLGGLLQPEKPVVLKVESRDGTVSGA
Chain of CYP1A2 (P05177 whole entry): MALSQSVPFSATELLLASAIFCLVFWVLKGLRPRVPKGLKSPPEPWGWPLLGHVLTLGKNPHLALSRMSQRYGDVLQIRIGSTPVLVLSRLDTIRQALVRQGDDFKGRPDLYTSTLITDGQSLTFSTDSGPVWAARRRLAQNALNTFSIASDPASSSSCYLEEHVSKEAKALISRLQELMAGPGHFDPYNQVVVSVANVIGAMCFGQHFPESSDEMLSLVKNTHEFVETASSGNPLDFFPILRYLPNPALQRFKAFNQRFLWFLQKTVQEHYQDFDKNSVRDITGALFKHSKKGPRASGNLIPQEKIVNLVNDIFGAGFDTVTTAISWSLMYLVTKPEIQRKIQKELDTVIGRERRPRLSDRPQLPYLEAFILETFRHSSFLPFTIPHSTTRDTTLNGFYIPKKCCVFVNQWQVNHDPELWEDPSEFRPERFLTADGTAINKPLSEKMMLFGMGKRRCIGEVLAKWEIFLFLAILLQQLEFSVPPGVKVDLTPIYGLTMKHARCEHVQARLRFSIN
Chain of CYP2B6 (P20813 whole entry): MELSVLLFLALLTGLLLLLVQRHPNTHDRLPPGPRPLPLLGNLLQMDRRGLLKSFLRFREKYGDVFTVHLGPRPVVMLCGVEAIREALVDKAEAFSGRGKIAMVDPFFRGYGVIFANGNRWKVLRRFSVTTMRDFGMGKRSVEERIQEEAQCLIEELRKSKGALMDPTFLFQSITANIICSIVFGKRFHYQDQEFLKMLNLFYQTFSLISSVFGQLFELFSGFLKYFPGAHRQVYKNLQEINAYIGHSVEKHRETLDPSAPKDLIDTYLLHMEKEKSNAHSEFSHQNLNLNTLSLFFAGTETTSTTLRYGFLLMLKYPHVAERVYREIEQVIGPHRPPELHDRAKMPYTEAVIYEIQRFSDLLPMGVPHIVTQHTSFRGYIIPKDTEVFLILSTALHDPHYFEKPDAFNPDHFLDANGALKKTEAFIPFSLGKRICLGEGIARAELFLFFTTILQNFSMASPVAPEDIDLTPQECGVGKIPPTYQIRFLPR

For `CSc1ccc(OCc2ncc([N+](=O)[O-])n2C)cc1` [Fexinidazole, 1-methyl-2-((p-(methylthio)phenoxy)methyl)-5-nitroimidazole], the “metabolism by the enzyme” value [1] was “extensively metabolised”, the “metabolism by the enzyme” value [2] was “inactive” and the “metabolism by the enzyme” value [3] was “inactive”. For the same compound, the “metabolism by the enzyme” value [4] was “extensively metabolised”, the “metabolism by the enzyme” value [5] was “extensively metabolised” and the “metabolism by the enzyme” value [6] was “extensively metabolised”. The “metabolism by the enzyme” value [7] was “extensively metabolised”, the half-life at 1 µM [8] was 1.4 min and the CLint scaled at 1 µM ([8]; read-out: CLint in vitro) was > 180 L/h/kg. For the same compound, the hepatocyte CLint at 1 µM ([8]; read-out: CLint in vitro) was 1630 µL/min/1e6 cells, the CLint scaled at 1 µM ([9]; read-out: CLint in vitro) was 390 L/h/kg and the half-life at 1 µM ([9]; cynomolgus) was 0.6 min. The hepatocyte CLint at 1 µM ([9]; cynomolgus, read-out: CLint in vitro) was 1190 µL/min/1e6 cells.
